Assays:
colonic Treg (cTreg) = assay: SPF SCFA intervention; flow cytometry of lymphocytes; format: in vivo, mice
Protocol: To isolate LP lymphocytes, small and large intestines were collected and opened longitudinally and washed with PBS to remove fecal contents. To remove epithelial cells, mucus and fat tissue, intestines were incubated 2 times in EDTA (5 mM)/DTT (1 mM)/Dulbecco's PBS (calcium and magnesium-free) solution (5 ml/colon) for 25 min at 37° C. Intestines were then minced and collagenase-digested two times for 45 min at 37° C. in RPMI containing 1 mg/ml collagenase type VIII (SIGMA), 25 μg/ml DNase I (Roche), 50 μg/ml Dispase (StemCell Technologies) and 0.01M HEPES (StemCell Technologies). The crude cell suspension was loaded onto a 40%/90% Percoll (GE Healthcare) gradient and centrifuged at 720 x g for 25 min at room temperature with acceleration and brake turned off. LP lymphocytes were collected from the 40%/90% interface.
Intracellular staining of the transcription factors Foxp3, Helios and T-bet was performed using the Foxp3 Fix/Perm Buffer Set (Biolegend). For detection of intracellular cytokines, cells were first stimulated for 4 h with 50 ng/ml PMA and 1 μg/ml ionomycin in the presence of Brefeldin A (All obtained from Sigma), followed by staining for surface markers. Cells were then fixed and permeabilized using the Foxp3 Fix/Perm Buffer Set (Biolegend) and stained for intracellular cytokines. The following antibodies were used: PE-labeled anti-Foxp3 (FJK-16s, eBioscience), Pacific Blue-labeled anti-Helios (22F6), PE-, FITC- or APC-labeled anti-CD4 (RM4-5), PECy7-labeled anti-CD3 (145-2C11), PE- or APC-labeled anti-IL-10 (JES5-16E3), PerCP-Cy5.5-labeled anti-IL-17 (TC11-18H10.1), APC- or PE-Cy7-labeled anti-IFNγ (XMG1.2), Pacific Blue-labeled anti-TGFβ1 (TW7-16B4), FITC-, PerCP-Cy5.5 or Pacific Blue-labeled anti-CD45 (30-F11), PerCP-Cy5.5 anti-CD45RB (C363-16A), PE- or FITC-labeled anti-CD25 (PC61), Brilliant Violet 421-labeled anti-CD127 (A7R34), GPR43 rabbit polyclonal (Abcam Catalog *Ab118449, and anti-rabbit IgG DyLight649 (Poly4064). […] Flow cytometry was performed using LSRII and data were analyzed with FlowJo software (TreeStar, Inc.). […]

T cell transfer colitis = assay: T cell transfer model of colitis; format: in vivo, mice
Excerpt: At Day 0, Naive CD4+CD25^−CD45RB^hi splenic T cells were FACS-sorted from BALB/c mice and injected i.p. into 6-8 week old BALB/c RAG2^−/− immunodeficient recipients (5×10^5 cells/mouse). At day 10, BALB/c RAG2^−/− immunodeficient recipients received CD4^+ CD25^+ CD45RB^lo splenic Treg cells (75,000/mouse) isolated from BALB/c or C57BL/6 mice Ffar2^+/+ and Ffar2^−/− mice where indicated. Mice were monitored weekly for weight loss and morbidity for 6-9 weeks as per the protocol's experimental endpoint guidelines.
Colons were excised and cleaned with DPBS prior to fixation in 4% PFA and then processed by routine paraffin embedding, sectioning and H&E staining. Colitis scores were determined by J.N.G., who was blinded to the experimental parameters. Each of 4 histologic parameters were scored as absent (0), mild (1), moderate (2), or severe (3): mononuclear cell infiltraton, polymorphonuclear cell infiltration, epithelial hyperplasia, and epithelial injury. The scores for the parameters were summed to generate the cumulative histologic colitis score as previously described.

Ffar2 = target: T1, Ffar2 (Homo sapiens, UniProt O15552); details: among SCFA; Le Poul et al. 2003; cited from earlier work
T1 sequence (O15552 1-330): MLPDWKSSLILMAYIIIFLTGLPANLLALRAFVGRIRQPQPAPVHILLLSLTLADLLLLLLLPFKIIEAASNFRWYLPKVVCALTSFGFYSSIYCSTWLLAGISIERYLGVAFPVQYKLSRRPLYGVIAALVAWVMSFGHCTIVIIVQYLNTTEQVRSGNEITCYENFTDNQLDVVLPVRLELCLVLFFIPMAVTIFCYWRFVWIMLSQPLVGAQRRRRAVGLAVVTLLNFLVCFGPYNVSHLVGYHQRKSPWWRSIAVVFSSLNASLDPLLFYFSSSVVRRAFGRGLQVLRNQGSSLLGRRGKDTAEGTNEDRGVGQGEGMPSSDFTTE

Compound: CCC(=O)O [Propionate, propionic acid]
- percentage and number of cTreg (colonic Treg (cTreg); Ffar2+/+ control mice): significantly enhanced
- percentage and number of cTreg (colonic Treg (cTreg); Ffar2-/- mice): no effect
- small intestinal Treg numbers (colonic Treg (cTreg); SPF mice, distal ileum lamina propria): does not affect
- effect on intestinal inflammation (colitis scores) (T cell transfer colitis; Ffar2+/+ or Ffar2-/- Treg transferred): dependent upon Ffar2 expression in Treg
- degrees of colonic crypt injury, inflammation, and hyperplasia (T cell transfer colitis; H&E, compared to control mice): reduced degrees
- frequency and number of colonic LP Foxp3+ Treg (T cell transfer colitis; T cell transfer colitis): increase
- weight loss (T cell transfer colitis; naïve T cells and Treg, vs water alone (P<0.0001)): less severe
- mean colitis score (T cell transfer colitis; naïve T cells and Treg, water alone 5.1±0.6): 2.0±0.6
- affinity for Ffar2 (Ffar2): highest affinity

Reference: patent US20170340588A1, “MODULATION OF REGULATORY T CELLS VIA G-COUPLED PROTEIN RECEPTOR 43” (President and Fellows of Harvard College, priority 2013, published 2017)
